The nature of data set [1]: Particle size and PDI by dynamic light scattering. The format is physicochemical. The method, then: The 7.5 μL nucleic acid lipid nanoparticle solution (containing approximately 0.04 mg/mL mRNA) was taken and added with 200 μL ultrapure water, mixed by gentle blowing using a pipette tip, and the particle size of the nanopreparation was detected by dynamic lightscattering (DLS) using a Malvern Dynamic Light Scattering Instrument (Malvern Instruments Ltd., ZEN3700, UK). 27.5 μL nucleic acid lipid nanoparticle solution (containing about 0.04 mg/mL mRNA) was taken and added with 200 μL ultrapure water. A pipette tip was used to gently blow the sample and mix well. The particle size of the nanopreparation was detected by Malvern Dynamic Light Scattering Instrument (Malvern Instruments Ltd., ZEN3700, UK). After the detection, the sample was recovered to an EP tube, and 600 μL of ultrapure water was added, gently blown with a pipette tip, and the potential of the nanopreparation was measured by a Malvern particle size meter.

The test system of the next data set is mice. The experiment in a line: In vivo delivery of FLuc-mRNA lipid nanoparticle preparations in mice (IVIS imaging). Set-up: In vivo IVIS / In vivo IVIS (liver) / In vivo IVIS (spleen): unit not given here. The note with it: for in vivo delivery efficiency as compared to the benchmark compound SM102: certain formulations. The method, then: 7. In Vivo Delivery of the Nucleic Acid Lipid Nanoparticle Preparations in Mice After the preparation was completed, the preparation was injected intramuscularly (mice rectus femoris muscle of the thigh) or intravenously (mice tail vein), with approximately 75 μL per mouse, for a total of 3 mice. After a certain time of injection, in vivo imaging (PerkinElmer, IVIS Lumina III) was performed. 10-15 minutes before imaging, 200 μL of 15 mg/mL D-Luciferin working solution was injected intraperitoneally, and the imaging analysis was performed using an in vivo imager.

Setting [2] is: Table 2, LNP formulation with mRNA.
[3] abbreviates: Table 2, IV, whole body scan, molar ratio DMG-PEG2000:DSPC:Chol:Lipid and N/P.

Regarding `CC/C=C\CCOCOCCCCCCOC(=O)C(O)CN(CCN1CCN(CCN(CC(O)C(=O)OCCCCCCOCOCC/C=C\CC)CC(O)C(=O)OCCCCCCOCOCC/C=C\CC)CC1)CCN(CC(O)C(=O)OCCCCCCOCOCC/C=C\CC)CC(O)C(=O)OCCCCCCOCOCC/C=C\CC` (centres unmarked) [Compound L0201], the “Particle size (nm)” value in data set [1] (setting [2]) stood at 119.70 ± 0.61 nm. In data set [1] (Table 2, polydispersity value), this compound displayed a PDI of 0.07 ± 0.01. Besides, the “In vivo IVIS” value in the data set on mice (Table 2, IM, whole body scan) was 2.18 × 10^6; in the data set with mice (setting [3]) it was 4.46 × 10^6. Besides, the “In vivo IVIS (liver)” value in the data set on mice (Table 2, IV, liver) is on record as 5.29 × 10^8. Also, the “In vivo IVIS (spleen)” value in the data set on mice (Table 2, IV, spleen) is listed as 7.89 × 10^7. For the same compound, the “in vivo delivery efficiency as compared to the benchmark compound SM102” value with mice (Table 2) is listed as “superior in vivo delivery efficiency”.
Regarding `CCCC/C=C\CCOCOCCCCOC(=O)C(O)CN(CCN1CCN(CCN(CC(O)C(=O)OCCCCOCOCC/C=C\CCCC)CC(O)C(=O)OCCCCOCOCC/C=C\CCCC)CC1)CCN(CC(O)C(=O)OCCCCOCOCC/C=C\CCCC)CC(O)C(=O)OCCCCOCOCC/C=C\CCCC` (centres unmarked) [Compound L0202], the “Particle size (nm)” value in data set [1] (setting [2]) was 114.43 ± 0.96 nm. Further, the PDI in data set [1] (Table 2, polydispersity value) came to 0.07 ± 0.02. Besides, the “In vivo IVIS” value in the data set with mice (Table 2, IM, whole body scan) is given as 9.20 × 10^7; in the data set with mice (setting [3]), 3.73 × 10^9. In addition, in the data set on mice (Table 2), the “in vivo delivery efficiency as compared to the benchmark compound SM102” value was “superior in vivo delivery efficiency”.
With `CCCCCCCCCCCCOC(=O)C(O)CN(Cc1ccc(CN(CC(O)C(=O)OCCCCCCCCCCCC)CC(O)C(=O)OCCCCCCCCCCCC)cc1)CC(O)C(=O)OCCCCCCCCCCCC` (centres unmarked) [Compound L0207], the PDI in data set [1] (Table 4) was found to be 0.19 ± 0.00. The “Particle size (nm)” value in data set [1] (Table 4) worked out at 172.13 ± 1.53 nm. Moreover, the “In vivo IVIS” value in the data set on mice (Table 4, IM) is listed as 1.75 × 10^5; in the data set on mice (Table 4, IV), 2.41 × 10^5.
Take `CCCCCCCCCCCCNC(=O)C(O)CN(Cc1ccc(CN(CC(O)C(=O)NCCCCCCCCCCCC)CC(O)C(=O)NCCCCCCCCCCCC)cc1)CC(O)C(=O)NCCCCCCCCCCCC` (centres unmarked) [Compound L0208]: in data set [1] (Table 4), the PDI was found to be 0.14 ± 0.03 and the “Particle size (nm)” value worked out at 176.67 ± 1.97 nm. Moreover, the “In vivo IVIS” value with mice (Table 4, IM) is reported as 1.94 × 10^6. Further, in the data set on mice (Table 4, IV), the “In vivo IVIS” value is listed as 2.27 × 10^5.
Turning to `CCCCCCCCCCOC(=O)C(O)CN(CCCN1CCN(CCCN(CC(O)C(=O)OCCCCCCCCCC)CC(O)C(=O)OCCCCCCCCCC)CC1)CC(O)C(=O)OCCCCCCCCCC` (centres unmarked) [Compound L0209], the “Particle size (nm)” value is reported as 99.95 ± 0.74 nm in data set [1] (Table 4, molar ratio 1.00:6.00:44.50:48.50, N/P 40, IV formulation) and 84.17 ± 0.31 nm in data set [1] (Table 4, molar ratio 1.50:6.00:57.50:35.00, N/P 48, IM formulation). For the same compound, the “In vivo IVIS” value with mice (Table 4, IM) is 7.33 × 10^8; with mice (Table 4, IV) it was 1.52 × 10^10.
Turning to `CCCCCCCCCCOC(=O)C(O)CN(CCN1CCN(CCN(CC(O)C(=O)OCCCCCCCCCC)CC(O)C(=O)OCCCCCCCCCC)CC1)CCN(CC(O)C(=O)OCCCCCCCCCC)CC(O)C(=O)OCCCCCCCCCC` (centres unmarked) [Compound L0210], the PDI in data set [1] (Table 4) worked out at 0.15 ± 0.01. The “Particle size (nm)” value in data set [1] (Table 4, molar ratio 1.00:16.00:48.00:35.00, N/P 30, IV formulation) amounted to 101.83 ± 0.21 nm; in data set [1] (Table 4, molar ratio 1.40:11.15:38.95:48.50, N/P 40, IM formulation), 94.89 ± 0.78 nm. Moreover, the “In vivo IVIS” value in the data set on mice (Table 4, IM) is recorded as 2.48 × 10^7; in the data set with mice (Table 4, IV), 6.93 × 10^9.
Take `CCCCCCCCCCOC(=O)C(O)CN(Cc1ccc(CN(CC(O)C(=O)OCCCCCCCCCC)CC(O)C(=O)OCCCCCCCCCC)cc1)CC(O)C(=O)OCCCCCCCCCC` (centres unmarked) [Compound L0211]: in data set [1] (Table 4), the PDI was 0.22 ± 0.00 and the “Particle size (nm)” value was 134.47 ± 2.72 nm. The “In vivo IVIS” value with mice (Table 4, IM) is 1.37 × 10^5. For the same compound, the “In vivo IVIS” value in the data set with mice (Table 4, IV) is given as 1.36 × 10^5.
In the case of `CCCCCCCCCCCCOC(=O)C(O)CN[C@H]1CC[C@@H](N(CC(O)C(=O)OCCCCCCCCCCCC)CC(O)C(=O)OCCCCCCCCCCCC)CC1` (some centres unmarked) [Compound L0212], in data set [1] (Table 4), the PDI came out at 0.18 ± 0.01 and the “Particle size (nm)” value turned out to be 95.87 ± 0.24 nm. Besides, in the data set on mice (Table 4, IM), the “In vivo IVIS” value is reported as 1.40 × 10^7. The “In vivo IVIS” value in the data set on mice (Table 4, IV) was 1.38 × 10^8.
For `CCCCCCCCCCCCNC(=O)C(O)CN(CC(O)C(=O)NCCCCCCCCCCCC)[C@H]1CC[C@@H](N(CC(O)C(=O)NCCCCCCCCCCCC)CC(O)C(=O)NCCCCCCCCCCCC)CC1` (some centres unmarked) [Compound L0213] the same measures were 0.18 ± 0.01, 174.43 ± 1.85 nm, 2.36 × 10^5 and 3.64 × 10^5.

These data come from patent US12599560B2, “Lipids and lipid nanoparticle formulations” (Longuide Biopharma Corporation, priority 2023, dated 2026).
